# Reference: patent EP0011821A2, “Antiseborrhoeic hair treatment composition” (Henkel Kommanditgesellschaft auf Aktien, priority 1978, dated 1980)
# Tested on: Meerschweinchen
# Experiment: Test for anti-dandruff effect on oleic-acid-treated back skin of shorn guinea pigs (skin fold thickness and visual scaling score)
# Assay type: in vivo
# Conditions: 5 % test substance with 5 % Ölsäure in 70 %igem Ethanol, topical on the back, 60 min exposure on 4 consecutive days, relative to skin treated with 5 % Ölsäure in 70 % Ethanol only, significant (+, 95 %)
# From the text: Die Prüfung auf Antischuppenwirkung wurde in folgender Weise durchgeführt:
# Die Prüfsubstanz wurde in 5 % iger Konzentration zusammen mit 5 % Ölsäure in 70 %igem Ethanol gelöst und in alternierender Reihenfolge und in rotierendem Schema auf den Rücken junger, geschorener weiblicher Meerschweinchen im Gewicht von 600 ± 50 g aufgetragen. Die Einwirkungszeit der Substanz wurde dabei auf 60 Minuten begrenzt, da diese Zeit ausreichte, um eine Wirkung zu erzielen. Anschließend wurden die Tiere mit warmem Wasser 30 Sekunden lang abgeduscht. Die Reihenfolge der Tiere bei der Applikation wechselte dabei täglich, um Differenzen in der Einwirkungszeit zwischen dem ersten und letzten Tier der Gruppe auf ein Minimum zu begrenzen. Diese Behandlung geschah an vier aufeinanderfolgenden Tagen, darauf folgte eine Ruhezeit (Entwicklungszeit von drei Tagen). Am siebenten Tag wurde ausgewertet, und zwar a) kutimetrisch auf Hautfaltendicke instrumentell mit dem Cutimeter nach Götze und b) visuell auf Schuppenbildung bzw. Hemmung nach einer 4-Punkte-Skala folgender Definition: • 0 = keine Schuppen • 1 = leichte Schuppen • 2 = kräftige Schuppen • 3= starke Schuppen mit Rötung • 4 = Krusten mit Aufrichten der Haare.
# Die Versuchsgruppe bestand aus 6 Tieren. Das Kollektiv wurde mathematisch auf Homogenität geprüft und nach Eliminierung signifikant abweichender Tiere wurden Mittelwert und Streuung berechnet. […]
smiles,measurement,setting,value
"COc1ccc(Cc2nccc3cc(OC)c(OC)cc23)cc1OC [Papaverin, 1-(3',4'-dimethoxybenzyl)-6,7-dimethoxy-isochinolin]",Hautdickenmessung Hemmung %,evaluated on day 7 with the Cutimeter nach Götze,17%
same,Hautschuppenmessung Hemmung %,evaluated visually on day 7 on a 0-4 scale,100%
